What all share (assay type): cell-based
For test [1], the system named is Desulfovibrio longus ATCC 51456. Kind of test: Biocidal efficacy (MBC, minimum tested biocide concentration for complete bacterial kill) against anaerobic bacteria in salt solution. Conditions: 35° C., 2 hours, 10^6 to 10^7 CFU/mL; for Concentration (ppm active) for anaerobic bacteria kill, DTEA: DTEA part of the MBC for complete bacterial kill; for Concentration (ppm active) for anaerobic bacteria kill, THPS: THPS part of the MBC for complete bacterial kill. How it is done:
The synergy indexes reported in the following examples are calculated using the following equation: Synergy Index=Ca/CA+Cb/CB
Ca: Concentration of biocide A required to achieve a certain level of bacterial kill when used in combination with B
CA: Concentration of biocide A required to achieve a certain level of bacterial kill when used alone
Cb: Concentration of biocide B required to achieve a certain level of bacterial kill when used in combination with A
CB: Concentration of biocide B required to achieve a certain level of bacterial kill when used alone.
A synergy index (SI) of 1 indicates additivity, a synergy index of less than 1 indicates synergy, and a synergy index greater than 1 indicates antagonism.
Inside an anaerobic chamber (Bactron anaerobic chamber), a deoxygenated sterile salt solution (3.1183 g of NaCl, 1.3082 mg of NaHCO3, 47.70 mg of KCl, 72.00 mg of CaCl2, 54.49 mg of MgSO4, 172.28 mg of Na2SO4, 43.92 mg of Na2CO3 in 1 L water) is inoculated with Desulfovibrio longus ATCC 51456 to a final bacterial concentration of 10^6 to 10^7 CFU/mL. […] After the treated cell suspensions are incubated at 35° C. for 2 hours, the biocidal efficacy is determined by minimum tested biocide concentration for complete bacterial kill in the aliquots (MBC).

Test [2] relates to Biofilms of Desulfovibrio longus ATCC 51456 (sessile bacteria). Kind of test: Sessile bacteria kill in biofilms grown in Calgary Biofilm Device. The conditions noted are these: 72 hours biofilm, 2 hours treatment, anaerobic. As to the method:
(§1) Modified Baar's Medium (ATCC #1249 Broth) is used as culture medium and the medium is changed after 48 hrs of incubation.

Test [3] has as its system Biofilms of Desulfovibrio longus ATCC 51456. The test can be described thus: Biofilm removal, remaining biofilm by crystal violet staining. Conditions: 2 hours treatment, optical density of biofilm captured crystal violet at 580 nm. How it is done: as §1
The biofilm is fixed with 99% methanol and, after air drying, the pegs are stained with 2% (w/v) crystal violet and washed with tap water. The pegs are then air dried and the crystal violet bound to the biofilm is extracted with 33% glacial acetic acid. The total remaining biofilm is determined by the optical density (OD) of the extracted solution at 580 nm.

In the case of `CCCCCCCCCCSCCN` [DTEA, 2-(decylthio)ethanamine], in test [1], the “Concentration (ppm active) for anaerobic bacteria kill, DTEA” value is reported as 20.00 ppm active and the “Concentration (ppm active) for anaerobic bacteria kill, THPS” value is 0.00 ppm active.
For “tetrakis(hydroxymethyl)phosphonium sulfate [THPS]”, in test [2], the “Concentration (ppm active) for 3 log10 bacterial reduction” value was determined as 50 ppm active. Moreover, the “Remaining biofilm, OD580” value in test [3] (50 ppm active) stood at 0.57. Further, in test [3] (100 ppm active), the “Remaining biofilm, OD580” value was determined as 0.68. Further, in test [1], the “Concentration (ppm active) for anaerobic bacteria kill, DTEA” value stood at 0.00 ppm active and the “Concentration (ppm active) for anaerobic bacteria kill, THPS” value amounted to 19.75 ppm active.

The record behind these values is patent US9210936B2, “Biocidal compositions and methods of use” (Dow Global Technologies LLC, priority 2011, dated 2015).
